According to US3950354A, “Imidazolylacetic acid amides” (Bayer Aktiengesellschaft, priority 1972, dated 1976):
Values after ≈ are worked out from the molar mass of the structure shown. Like-named read-outs stand apart in the source and are kept apart here.

How the values were obtained:
[1] = system: Trichophyton mentagrophytes; test: Anti-mycotic spectrum of action in vitro, series dilution test (Trichophyton mentagrophytes); format: cell-based; conditions: read-out: Minimum inhibitory concentration
Experimental: (§1) Determination of the anti-mycotic spectrum of action in vitro, by the series dilution test
(§2) The nutrient substrates used were Sabouraud's milieu d'epreuve for dermatophytes and moulds, and meat broth-glucose bouillon for blastomycetes and biphase fungi.
(§3) The incubation temperature was 28°C and the incubation time was 24 to 96 hours.

Candida albicans [2] = test: Anti-mycotic spectrum of action in vitro, series dilution test (Candida albicans); format: cell-based; conditions: read-out: Minimum inhibitory concentration
Experimental: as §1, §2, §3

Penicillium commune = test: Anti-mycotic spectrum of action in vitro, series dilution test (Penicillium commune); format: cell-based; conditions: read-out: Minimum inhibitory concentration
Experimental: as §1, §2, §3

Candida albicans [3] = test: Candidosis of mice; format: in vivo, Mice of type SPF-CF1; conditions: oral, 50, 75, 100 and 150 mg/kg, one hour before and 7 hours after infection; 1 to 2 × 10^6 Candida cells intravenously
Experimental: Mice of type SPF-CF1 were intravenously infected with 1 to 2 × 10^6 Candida cells which were suspended in physiological sodium chloride solution.
One hour before and 7 hours after infection, the animals were treated orally with 50, 75, 100 and 150 mg of the compounds according to the invention/kg of body weight. Untreated control animals died of the infection, 3 to 6 days after infection.

Aspergillus niger = test: Anti-mycotic spectrum of action in vitro, series dilution test (Aspergillus niger); format: cell-based; conditions: * = 90% inhibition of growth, read-out: Minimum inhibitory concentration
Experimental: as §1, §2, §3

Microsporon felineum = test: Anti-mycotic spectrum of action in vitro, series dilution test (Microsporon felineum); format: cell-based; conditions: read-out: Minimum inhibitory concentration
Experimental: as §1, §2, §3

[4] = n.s. = no serum added, Sabouraud's milieu d'epreuve, 28°C, 24 to 96 hours
[5] = n.s. = no serum added, meat broth-glucose bouillon, 28°C, 24 to 96 hours
[6] = n.s. = no serum added, + = 50% inhibition of growth
[7] = n.s. = no serum added, * = 90% inhibition of growth

O=C(N1CCS(=O)(=O)CC1)C(c1ccc(Cl)cc1)(c1ccc(Cl)cc1)n1ccnc1 [Example 2, [ω,ω-di(4-chlorophenyl)-ω-imidazolyl-(1)-methylcarbonyl-(4)]-1,4-thiazine dioxide]
MIC [1, 4]: 100 µg/mL (≈ 215 µM) | MIC (Candida albicans [2]; [5]): > 100 µg/mL | MIC (Penicillium commune; 28°C, 24 to 96 hours): > 100 µg/mL | Action in the case of Candida albicans (survivals on 6th day after infection) (Candida albicans [3]): + (50% survivals on 6th day after infection)

O=C(Nc1cccc(C(F)(F)F)c1)C(c1ccccc1)(c1ccccc1)n1ccnc1 [Example 4, ω,ω-diphenyl-ω-imidazolyl-(1)-acetic acid 3-trifluoromethylanilide]
MIC [1, 4]: 64 µg/mL (≈ 152 µM) | MIC ([1]; w.s. = with 30% serum added): 64 µg/mL (≈ 152 µM) | MIC (Candida albicans [2]; [5]): > 64 µg/mL | MIC (Candida albicans [2]; w.s. = with 30% serum added): > 64 µg/mL | MIC (Penicillium commune; 28°C, 24 to 96 hours): > 64 µg/mL

Cc1cc(Cl)ccc1NC(=O)C(c1ccccc1)(c1ccccc1)n1ccnc1 [Example 5, ω,ω-diphenyl-ω-imidazolyl-(1)-acetic acid 2-methyl-4-chloro-anilide]
MIC [1, 4]: 32 µg/mL (≈ 79.6 µM) | MIC ([1]; w.s. = with 30% serum added): 32 µg/mL (≈ 79.6 µM) | MIC (Candida albicans [2]; [6]): 8 µg/mL | MIC (Candida albicans [2]; w.s. = with 30% serum added, + = 50% inhibition of growth): 64 µg/mL | MIC (Penicillium commune; 28°C, 24 to 96 hours): > 64 µg/mL

O=C(Nc1ccc(Cl)cc1Cl)C(c1ccccc1)(c1ccccc1)n1ccnc1 [Example 6, ω,ω-diphenyl-ω-imidazolyl-(1)-acetic acid 2,4-dichloroanilide]
MIC [1, 7]: 1 µg/mL (≈ 2.37 µM) | MIC ([1]; w.s. = with 30% serum added): 8 µg/mL (≈ 18.9 µM) | MIC (Candida albicans [2]; [7]): 1 µg/mL (≈ 2.37 µM) | MIC (Candida albicans [2]; w.s. = with 30% serum added, * = 90% inhibition of growth): 32 µg/mL (≈ 75.8 µM) | MIC (Penicillium commune; * = 90% inhibition of growth): 64 µg/mL (≈ 152 µM) | MIC (Aspergillus niger; n.s. = no serum added): 4 µg/mL (≈ 9.47 µM) | MIC (Aspergillus niger; w.s. = with 30% serum added): 8 µg/mL (≈ 18.9 µM) | MIC (Microsporon felineum; * = 90% inhibition of growth): 4 µg/mL (≈ 9.47 µM)

O=C(NC1CCCCC1)C(c1ccccc1)(c1ccccc1)n1ccnc1 [Example 7, ω,ω-diphenyl-ω-imidazolyl-(1)-acetic acid cyclohexylamide]
MIC [1, 7]: 32 µg/mL (≈ 89 µM) | MIC ([1]; w.s. = with 30% serum added): > 64 µg/mL | MIC (Candida albicans [2]; [7]): 4 µg/mL (≈ 11.1 µM) | MIC (Candida albicans [2]; w.s. = with 30% serum added): 8 µg/mL (≈ 22.3 µM) | MIC (Penicillium commune; 28°C, 24 to 96 hours): > 64 µg/mL | Action in the case of Candida albicans (survivals on 6th day after infection) (Candida albicans [3]): ++ (60 to 80% survivials on 6th day after infection)

O=C(N1CCS(=O)(=O)CC1c1ccccc1)C(c1ccc(Cl)cc1)(c1ccc(Cl)cc1)n1ccnc1 (stereo not drawn) [Example 11, 4-[ω,ω-di-(4-chlorophenyl)-ω-imidazolyl-(1)-methylcarbonyl]-3-phenyl-1,4-thiazine dioxide]
MIC [1, 4]: 32 µg/mL (≈ 59.2 µM) | MIC ([1]; w.s. = with 30% serum added): 32 µg/mL (≈ 59.2 µM) | MIC (Candida albicans [2]; [5]): > 64 µg/mL | MIC (Candida albicans [2]; w.s. = with 30% serum added): > 64 µg/mL | MIC (Penicillium commune; 28°C, 24 to 96 hours): > 64 µg/mL

CCOC(=O)N1CCN(C(=O)C(c2ccccc2)(c2ccccc2)n2ccnc2)CC1 [Example 12, 4-[ω,ω-diphenyl-ω-imidazolyl-(1)-methylcarbonyl]-1-ethoxycarbonyl-piperazine]
MIC [1, 6]: 64 µg/mL | MIC (Candida albicans [2]; [6]): 64 µg/mL | MIC (Candida albicans [2]; w.s. = with 30% serum added): > 64 µg/mL | MIC (Penicillium commune; 28°C, 24 to 96 hours): > 64 µg/mL | Action in the case of Candida albicans (survivals on 6th day after infection) (Candida albicans [3]): + (50% survivals on 6th day after infection)

O=C(N1CCN(c2ccccc2Cl)CC1)C(c1ccccc1)(c1ccccc1)n1ccnc1 [Example 13, 4-[ω,ω-diphenyl-ω-imidazolyl-(1)-methylcarbonyl]-1-o-chlorophenyl-piperazine]
MIC [1, 4]: 10 µg/mL (≈ 21.9 µM) | MIC ([1]; w.s. = with 30% serum added): 40 µg/mL (≈ 87.5 µM) | MIC (Candida albicans [2]; [5]): > 100 µg/mL | MIC (Penicillium commune; 28°C, 24 to 96 hours): > 100 µg/mL | MIC (Aspergillus niger; n.s. = no serum added): 1 µg/mL (≈ 2.19 µM) | MIC (Aspergillus niger; w.s. = with 30% serum added): 100 µg/mL (≈ 219 µM) | MIC (Microsporon felineum; 28°C, 24 to 96 hours): 100 µg/mL (≈ 219 µM)
